Measurements from patent US11793849B2, “Method of Chinese herbal medicine extract used for treating multiple diseases caused by drug resistant bacteria infection” (priority 2016, dated 2023).
In brackets after ≈: the same amount, converted by molar mass. Read-outs that look alike come from different tables or passages of the source.

Tested on: MDRAB
Assay: MIC determination, microdilution broth method
Assay type: cell-based, Acinetobacter baumannii
Conditions: for MIC: read-out: MIC
[1] = single use, 20 MDRABs, EA=10% ethanol extract
[2] = single use, 20 MDRABs, EA=water extract
[3] = single use, 20 MDRABs, section of the 95% ethanol extract

Protocol: Determination methods of a Minimal Inhibitory Concentration (MIC) and a Minimum Bactericidal Concentration (MBC) of a test product: the MIC and the MBC of the Pithecellobium clypearia Benth water or ethanol extract to the MDRAB are determined by a microdilution broth method. And it is operated by referring to the microdilution broth method recommended by National Committee for Clinical Laboratory Standards (NCCLS).

C[C@@H](O)[C@H]1C(=O)N2C(C(=O)O)=C(SCCN=CN)C[C@H]12 [IMP, imipenem]
MIC (Acinetobacter baumannii, strain A1, EA=60% ethanol extract): 1 µg/mL (≈ 3.34 µM)
MIC (Acinetobacter baumannii, strain A1, EA=95% ethanol extract): 1 µg/mL (≈ 3.34 µM)
MIC (Acinetobacter baumannii, strain A1, single use, EA=10% ethanol extract): 1 µg/mL (≈ 3.34 µM)
MIC (Acinetobacter baumannii, strain A1, single use, EA=water extract): 1 µg/mL (≈ 3.34 µM)
MIC (Acinetobacter baumannii, strain A2, EA=60% ethanol extract): 32 µg/mL (≈ 107 µM)
MIC (Acinetobacter baumannii, strain A2, EA=95% ethanol extract): 32 µg/mL (≈ 107 µM)
MIC (Acinetobacter baumannii, strain A2, single use, EA=10% ethanol extract): 32 µg/mL (≈ 107 µM)
MIC (Acinetobacter baumannii, strain A2, single use, EA=water extract): 32 µg/mL (≈ 107 µM)
MIC (Acinetobacter baumannii, strain A3, EA=60% ethanol extract): 32 µg/mL (≈ 107 µM)
MIC (Acinetobacter baumannii, strain A3, EA=95% ethanol extract): 32 µg/mL (≈ 107 µM)
MIC (Acinetobacter baumannii, strain A3, single use, EA=10% ethanol extract): 32 µg/mL (≈ 107 µM)
MIC (Acinetobacter baumannii, strain A3, single use, EA=water extract): 32 µg/mL (≈ 107 µM)
MIC (Acinetobacter baumannii, strain A4, EA=60% ethanol extract): 8 µg/mL (≈ 26.7 µM)
MIC (Acinetobacter baumannii, strain A4, EA=95% ethanol extract): 8 µg/mL (≈ 26.7 µM)
MIC (Acinetobacter baumannii, strain A4, single use, EA=10% ethanol extract): 8 µg/mL (≈ 26.7 µM)
MIC (Acinetobacter baumannii, strain A4, single use, EA=water extract): 8 µg/mL (≈ 26.7 µM)
MIC (Acinetobacter baumannii, strain A5, EA=60% ethanol extract): 32 µg/mL (≈ 107 µM)
MIC (Acinetobacter baumannii, strain A5, EA=95% ethanol extract): 32 µg/mL (≈ 107 µM)
MIC (Acinetobacter baumannii, strain A5, single use, EA=10% ethanol extract): 32 µg/mL (≈ 107 µM)
MIC (Acinetobacter baumannii, strain A5, single use, EA=water extract): 32 µg/mL (≈ 107 µM)
MIC (Acinetobacter baumannii, strain A6, EA=60% ethanol extract): 32 µg/mL (≈ 107 µM)
MIC (Acinetobacter baumannii, strain A6, EA=95% ethanol extract): 32 µg/mL (≈ 107 µM)
MIC (Acinetobacter baumannii, strain A6, single use, EA=10% ethanol extract): 32 µg/mL (≈ 107 µM)
MIC (Acinetobacter baumannii, strain A6, single use, EA=water extract): 32 µg/mL (≈ 107 µM)
MIC (Acinetobacter baumannii, strain A7, EA=60% ethanol extract): 32 µg/mL (≈ 107 µM)
MIC (Acinetobacter baumannii, strain A7, EA=95% ethanol extract): 32 µg/mL (≈ 107 µM)
MIC (Acinetobacter baumannii, strain A7, single use, EA=10% ethanol extract): 32 µg/mL (≈ 107 µM)
MIC (Acinetobacter baumannii, strain A7, single use, EA=water extract): 32 µg/mL (≈ 107 µM)
MIC (Acinetobacter baumannii, strain A8, EA=60% ethanol extract): 32 µg/mL (≈ 107 µM)
MIC (Acinetobacter baumannii, strain A8, EA=95% ethanol extract): 32 µg/mL (≈ 107 µM)
MIC (Acinetobacter baumannii, strain A8, single use, EA=10% ethanol extract): 32 µg/mL (≈ 107 µM)
MIC (Acinetobacter baumannii, strain A8, single use, EA=water extract): 32 µg/mL (≈ 107 µM)
MIC (Acinetobacter baumannii, strain A9, EA=60% ethanol extract): 32 µg/mL (≈ 107 µM)
MIC (Acinetobacter baumannii, strain A9, EA=95% ethanol extract): 32 µg/mL (≈ 107 µM)
MIC (Acinetobacter baumannii, strain A9, single use, EA=10% ethanol extract): 32 µg/mL (≈ 107 µM)
MIC (Acinetobacter baumannii, strain A9, single use, EA=water extract): 32 µg/mL (≈ 107 µM)
MIC (Acinetobacter baumannii, strain A10, EA=60% ethanol extract): 16 µg/mL (≈ 53.4 µM)
MIC (Acinetobacter baumannii, strain A10, EA=95% ethanol extract): 16 µg/mL (≈ 53.4 µM)
MIC (Acinetobacter baumannii, strain A10, single use, EA=10% ethanol extract): 16 µg/mL (≈ 53.4 µM)
MIC (Acinetobacter baumannii, strain A10, single use, EA=water extract): 16 µg/mL (≈ 53.4 µM)
MIC (Acinetobacter baumannii, strain A11, EA=60% ethanol extract): 32 µg/mL (≈ 107 µM)
MIC (Acinetobacter baumannii, strain A11, EA=95% ethanol extract): 32 µg/mL (≈ 107 µM)
MIC (Acinetobacter baumannii, strain A11, single use, EA=10% ethanol extract): 32 µg/mL (≈ 107 µM)
MIC (Acinetobacter baumannii, strain A11, single use, EA=water extract): 32 µg/mL (≈ 107 µM)
MIC (Acinetobacter baumannii, strain A12, EA=60% ethanol extract): 32 µg/mL (≈ 107 µM)
MIC (Acinetobacter baumannii, strain A12, EA=95% ethanol extract): 32 µg/mL (≈ 107 µM)
MIC (Acinetobacter baumannii, strain A12, single use, EA=10% ethanol extract): 32 µg/mL (≈ 107 µM)
MIC (Acinetobacter baumannii, strain A12, single use, EA=water extract): 32 µg/mL (≈ 107 µM)
MIC (Acinetobacter baumannii, strain A13, EA=60% ethanol extract): 32 µg/mL (≈ 107 µM)
MIC (Acinetobacter baumannii, strain A13, EA=95% ethanol extract): 32 µg/mL (≈ 107 µM)
MIC (Acinetobacter baumannii, strain A13, single use, EA=10% ethanol extract): 32 µg/mL (≈ 107 µM)
MIC (Acinetobacter baumannii, strain A13, single use, EA=water extract): 32 µg/mL (≈ 107 µM)
MIC (Acinetobacter baumannii, strain A14, EA=60% ethanol extract): 32 µg/mL (≈ 107 µM)
MIC (Acinetobacter baumannii, strain A14, EA=95% ethanol extract): 32 µg/mL (≈ 107 µM)
MIC (Acinetobacter baumannii, strain A14, single use, EA=10% ethanol extract): 32 µg/mL (≈ 107 µM)
MIC (Acinetobacter baumannii, strain A14, single use, EA=water extract): 32 µg/mL (≈ 107 µM)
MIC (Acinetobacter baumannii, strain A15, EA=60% ethanol extract): 32 µg/mL (≈ 107 µM)
MIC (Acinetobacter baumannii, strain A15, EA=95% ethanol extract): 32 µg/mL (≈ 107 µM)
MIC (Acinetobacter baumannii, strain A15, single use, EA=10% ethanol extract): 32 µg/mL (≈ 107 µM)
MIC (Acinetobacter baumannii, strain A15, single use, EA=water extract): 32 µg/mL (≈ 107 µM)
MIC (Acinetobacter baumannii, strain A16, EA=60% ethanol extract): 32 µg/mL (≈ 107 µM)
MIC (Acinetobacter baumannii, strain A16, EA=95% ethanol extract): 32 µg/mL (≈ 107 µM)
MIC (Acinetobacter baumannii, strain A16, single use, EA=10% ethanol extract): 32 µg/mL (≈ 107 µM)
MIC (Acinetobacter baumannii, strain A16, single use, EA=water extract): 32 µg/mL (≈ 107 µM)
MIC (Acinetobacter baumannii, strain A17, EA=60% ethanol extract): 16 µg/mL (≈ 53.4 µM)
MIC (Acinetobacter baumannii, strain A17, EA=95% ethanol extract): 16 µg/mL (≈ 53.4 µM)
MIC (Acinetobacter baumannii, strain A17, single use, EA=10% ethanol extract): 16 µg/mL (≈ 53.4 µM)
MIC (Acinetobacter baumannii, strain A17, single use, EA=water extract): 16 µg/mL (≈ 53.4 µM)
MIC (Acinetobacter baumannii, strain A18, EA=60% ethanol extract): 32 µg/mL (≈ 107 µM)
MIC (Acinetobacter baumannii, strain A18, EA=95% ethanol extract): 32 µg/mL (≈ 107 µM)
MIC (Acinetobacter baumannii, strain A18, single use, EA=10% ethanol extract): 32 µg/mL (≈ 107 µM)
MIC (Acinetobacter baumannii, strain A18, single use, EA=water extract): 32 µg/mL (≈ 107 µM)
MIC (Acinetobacter baumannii, strain A19, EA=60% ethanol extract): 32 µg/mL (≈ 107 µM)
MIC (Acinetobacter baumannii, strain A19, EA=95% ethanol extract): 32 µg/mL (≈ 107 µM)
MIC (Acinetobacter baumannii, strain A19, single use, EA=10% ethanol extract): 32 µg/mL (≈ 107 µM)
MIC (Acinetobacter baumannii, strain A19, single use, EA=water extract): 32 µg/mL (≈ 107 µM)
MIC (Acinetobacter baumannii, strain A20, EA=60% ethanol extract): 32 µg/mL (≈ 107 µM)
MIC (Acinetobacter baumannii, strain A20, EA=95% ethanol extract): 32 µg/mL (≈ 107 µM)
MIC (Acinetobacter baumannii, strain A20, single use, EA=10% ethanol extract): 32 µg/mL (≈ 107 µM)
MIC (Acinetobacter baumannii, strain A20, single use, EA=water extract): 32 µg/mL (≈ 107 µM)
MIC50 (Acinetobacter baumannii, single use, 20 MDRABs, section of the 60% ethanol extract, read-out: MIC50): 32 µg/mL (≈ 107 µM)
MIC90 (Acinetobacter baumannii, single use, 20 MDRABs, section of the 60% ethanol extract, read-out: MIC90): 32 µg/mL (≈ 107 µM)
MIC50 (MDRABs, EA=60% ethanol extract): 32 µg/mL (≈ 107 µM)
MIC90 (MDRABs, EA=60% ethanol extract): 32 µg/mL (≈ 107 µM)
MIC Range (MDRABs, EA=60% ethanol extract): 1 to 32 µg/mL
MIC50 (MDRABs, EA=95% ethanol extract): 32 µg/mL (≈ 107 µM)
MIC90 (MDRABs, EA=95% ethanol extract): 32 µg/mL (≈ 107 µM)
MIC Range (MDRABs, EA=95% ethanol extract): 1 to 32 µg/mL
MIC50 [1]: 32 µg/mL (≈ 107 µM)
MIC90 [1]: 32 µg/mL (≈ 107 µM)
MIC Range [1]: 1 to 32 µg/mL
MIC50 [2]: 32 µg/mL (≈ 107 µM)
MIC90 [2]: 32 µg/mL (≈ 107 µM)
MIC Range [2]: 1 to 32 µg/mL
MIC50 [3]: 32 µg/mL (≈ 107 µM)
MIC90 [3]: 32 µg/mL (≈ 107 µM)
